Source: patent publication US20230265151A1, “GIP/GLP1 CO-AGONIST COMPOUNDS” (priority 2020, published 2023)
Where two headings read alike, the source gives them in different places.

Legend:
hGCGR = biological target: T1, hGCGR (Homo sapiens, UniProt P47871); experiment: Functional cAMP formation (HTRF) in HEK-293 clonal cells expressing hGCGR, 0.1% bovine casein, without or with 1.0% human serum albumin; format: cell-based; conditions: 37° C.
T1 construct: expressed in transfected cells
In short: (§1)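 Cells were stimulated with peptide for 30 min at 37° C, then lysed in buffer carrying cAMP-d2 and anti-cAMP Eu3+-cryptate for a competitive HTRF read after at least 60 min at room temperature. The 665/620 nm ratio was converted to nM cAMP against a standard curve.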

hGIPR = biological target: T2, hGIPR (Homo sapiens, UniProt P48546); experiment: Functional cAMP formation (HTRF) in HEK-293 clonal cells expressing hGIPR, 0.1% bovine casein, without or with 1.0% human serum albumin; format: cell-based; conditions: for Emax: percent of maximal response to GIP(1-42)NH2; for EC50: geometric mean
T2 construct: expressed in transfected cells
T2 sequence (P48546 22-466): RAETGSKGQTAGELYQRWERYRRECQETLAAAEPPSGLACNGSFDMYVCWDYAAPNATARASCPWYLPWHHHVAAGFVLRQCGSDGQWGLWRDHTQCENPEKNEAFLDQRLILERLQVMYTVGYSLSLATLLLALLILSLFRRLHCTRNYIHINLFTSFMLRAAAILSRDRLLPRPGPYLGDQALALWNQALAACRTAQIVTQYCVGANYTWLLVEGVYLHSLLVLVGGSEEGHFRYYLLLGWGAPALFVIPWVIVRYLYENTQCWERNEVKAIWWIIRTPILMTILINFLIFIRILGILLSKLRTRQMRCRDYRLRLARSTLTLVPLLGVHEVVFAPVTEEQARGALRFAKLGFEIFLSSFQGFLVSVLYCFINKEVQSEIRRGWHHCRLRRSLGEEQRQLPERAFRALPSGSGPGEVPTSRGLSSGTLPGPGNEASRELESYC
In short: as §1

[1] = 0.1% bovine casein and 1.0% human serum albumin, geometric mean, read-out: hGCGR EC50, nM (SEM, n)
[2] = cAMP, 0.1% bovine casein (no human serum albumin), geometric mean, read-out: hGCGR EC50, nM (SEM, n)
[3] = HEK293, 0.1% bovine casein and 1.0% human serum albumin, 37° C., read-out: hGIPR Emax, % ± SEM
[4] = cAMP, 37° C., 0.1% bovine casein (no human serum albumin), read-out: hGIPR EC50, nM (SEM, n)
[5] = hGCGR EC50, nM (SEM, n), 0.1% bovine casein and 1.0% human serum albumin, geometric mean
[6] = hGCGR EC50, nM (SEM, n), cAMP, 0.1% bovine casein (no human serum albumin), geometric mean
[7] = HEK293, read-out: hGIPR Emax, % ± SEM, 0.1% bovine casein and 1.0% human serum albumin, 37° C.
[8] = hGIPR EC50, nM (SEM, n), cAMP, 37° C., 0.1% bovine casein (no human serum albumin)

T1 sequence (P47871 26-477): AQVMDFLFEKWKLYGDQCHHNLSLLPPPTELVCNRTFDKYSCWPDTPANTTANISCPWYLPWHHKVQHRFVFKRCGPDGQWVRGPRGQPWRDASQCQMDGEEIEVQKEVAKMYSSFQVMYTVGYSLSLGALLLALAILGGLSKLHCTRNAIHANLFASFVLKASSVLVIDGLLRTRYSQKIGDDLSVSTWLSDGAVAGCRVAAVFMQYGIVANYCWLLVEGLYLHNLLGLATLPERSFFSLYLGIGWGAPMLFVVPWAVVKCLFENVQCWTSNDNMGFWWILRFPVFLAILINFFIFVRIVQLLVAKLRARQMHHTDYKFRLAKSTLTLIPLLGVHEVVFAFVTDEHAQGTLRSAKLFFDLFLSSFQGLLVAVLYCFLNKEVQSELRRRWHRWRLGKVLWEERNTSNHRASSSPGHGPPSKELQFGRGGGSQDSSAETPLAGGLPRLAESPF

SMILES: CC[C@H](C)[C@H](NC(=O)[C@H](CC(C)C)NC(=O)[C@](C)(Cc1ccc(O)cc1)NC(=O)[C@@H](CCC(=O)O)NC(=O)[C@@H](NC(=O)[C@H](Cc1ccccc1)NC(=O)[C@H](CCCCNC(=O)COCCOCCNC(=O)COCCOCCNC(=O)CCCCCCCCCCCCC(=O)O)NC(=O)C(C)(C)NC(=O)[C@H](CCC(N)=O)NC(=O)[C@H](C)NC(=O)[C@H](CCCCNC(=O)COCCOCCNC(=O)COCCOCCNC(=O)CCCCCCCCCCCCC(=O)O)NC(=O)[C@H](CCCN)NC(=O)[C@H](CC(=O)O)NC(=O)[C@H](CC(C)C)NC(=O)[C@](C)(CC(C)C)NC(=O)[C@@H](NC(=O)[C@H](CO)NC(=O)[C@H](Cc1ccc2ccccc2c1)NC(=O)[C@H](CC(=O)O)NC(=O)[C@H](CO)NC(=O)[C@@H](NC(=O)[C@](C)(Cc1ccccc1F)NC(=O)[C@@H](NC(=O)CNC(=O)[C@H](CCC(=O)O)NC(=O)C(C)(C)NC(=O)[C@@H](N)Cc1ccc(O)cc1)[C@@H](C)O)[C@@H](C)O)[C@@H](C)CC)[C@@H](C)CC)C(=O)N[C@@H](CCC(=O)O)C(=O)NCC(=O)NCC(=O)N1CCC[C@H]1C(=O)N[C@@H](CO)C(=O)N[C@@H](CO)C(=O)NCC(=O)N[C@@H](C)C(=O)N1CCC[C@H]1C(=O)N1CCC[C@H]1C(=O)N1CCC[C@H]1C(=O)N[C@@H](CO)C(N)=O [Example 255]
- EC50 (hGCGR; [1]): > 9950 nM
- EC50 (hGCGR; [2]): > 9950 nM
- Emax (hGIPR; [3]): 93.4%
- EC50 (hGIPR; [4]): 0.0213 nM

SMILES: CC[C@H](C)[C@H](NC(=O)[C@H](CC(C)C)NC(=O)[C@](C)(Cc1ccc(O)cc1)NC(=O)[C@@H](CCC(=O)O)NC(=O)[C@@H](NC(=O)[C@H](Cc1ccccc1)NC(=O)[C@H](CCC(=O)O)NC(=O)C(C)(C)NC(=O)[C@H](CCC(N)=O)NC(=O)[C@H](C)NC(=O)[C@H](CCCCNC(=O)COCCOCCNC(=O)COCCOCCNC(=O)CC[C@H](NC(=O)CCCCCCCCCCCCC(=O)O)C(=O)O)NC(=O)[C@H](CCCN)NC(=O)[C@H](CC(=O)O)NC(=O)[C@H](CC(C)C)NC(=O)[C@](C)(CC(C)C)NC(=O)[C@@H](NC(=O)[C@H](CO)NC(=O)[C@H](Cc1ccc(OC)cc1)NC(=O)[C@H](CC(=O)O)NC(=O)[C@H](CO)NC(=O)[C@@H](NC(=O)[C@](C)(Cc1ccccc1F)NC(=O)[C@@H](NC(=O)CNC(=O)[C@H](CCC(=O)O)NC(=O)C(C)(C)NC(=O)[C@@H](N)Cc1ccc(O)cc1)[C@@H](C)O)[C@@H](C)O)[C@@H](C)CC)[C@@H](C)CC)C(=O)N[C@@H](CCCCNC(=O)COCCOCCNC(=O)COCCOCCNC(=O)CC[C@H](NC(=O)CCCCCCCCCCCCC(=O)O)C(=O)O)C(=O)NCC(=O)NCC(=O)N1CCC[C@H]1C(=O)N[C@@H](CO)C(=O)N[C@@H](CO)C(=O)NCC(=O)N[C@@H](C)C(=O)N1CCC[C@H]1C(=O)N1CCC[C@H]1C(=O)N1CCC[C@H]1C(=O)N[C@@H](CO)C(N)=O [Example 260]
- EC50 (hGCGR; [1]): > 9950 nM
- EC50 (hGCGR; [2]): > 9950 nM
- EC50 (hGIPR; 0.1% bovine casein and 1.0% human serum albumin, 37° C., read-out: hGIPR EC50, nM (SEM, n)): 3.27 nM
- Emax (hGIPR; [3]): 83%
- Emax (hGIPR; HEK293, cAMP, 37° C., 0.1% bovine casein, arithmetic mean, read-out: hGIPR Emax, % ± SEM): 113%
- EC50 (hGIPR; [4]): 0.0239 nM

SMILES: CC[C@H](C)[C@H](NC(=O)[C@H](CCCN)NC(=O)[C@H](CC(=O)O)NC(=O)[C@H](CC(C)C)NC(=O)[C@](C)(CC(C)C)NC(=O)[C@@H](NC(=O)[C@H](CO)NC(=O)[C@H](Cc1ccncc1)NC(=O)[C@H](CC(=O)O)NC(=O)[C@H](CO)NC(=O)[C@@H](NC(=O)[C@](C)(Cc1ccccc1F)NC(=O)[C@@H](NC(=O)CNC(=O)[C@H](CCC(=O)O)NC(=O)C(C)(C)NC(=O)[C@@H](N)Cc1ccc(O)cc1)[C@@H](C)O)[C@@H](C)O)[C@@H](C)CC)C(=O)N[C@@H](C)C(=O)N[C@@H](CCC(N)=O)C(=O)NC(C)(C)C(=O)N[C@@H](CCCCNC(=O)COCCOCCNC(=O)COCCOCCNC(=O)CC[C@H](NC(=O)CCCCCCCCCOc1ccc(C(=O)O)cc1)C(=O)O)C(=O)N[C@@H](Cc1ccccc1)C(=O)N[C@H](C(=O)N[C@H](CCC(=O)O)C(=O)N[C@@](C)(Cc1ccc(O)cc1)C(=O)N[C@@H](CC(C)C)C(=O)N[C@H](C(=O)N[C@@H](CCC(=O)O)C(=O)NCC(=O)NCC(=O)N1CCC[C@H]1C(=O)N[C@@H](CO)C(=O)N[C@@H](CO)C(=O)NCC(=O)N[C@@H](C)C(=O)N1CCC[C@H]1C(=O)N1CCC[C@H]1C(=O)N1CCC[C@H]1C(=O)N[C@@H](CO)C(=O)N[C@@H](CCCCNC(=O)COCCOCCNC(=O)COCCOCCNC(=O)CC[C@H](NC(=O)CCCCCCCCCOc1ccc(C(=O)O)cc1)C(=O)O)C(N)=O)[C@@H](C)CC)[C@@H](C)CC [Example 276]
- EC50 (hGCGR; [5]): > 9950 nM
- EC50 (hGCGR; [6]): > 9950 nM
- Emax (hGIPR; [7]): 91.4%
- EC50 (hGIPR; [8]): 0.0134 nM

SMILES: CC[C@H](C)[C@H](NC(=O)[C@H](CC(C)C)NC(=O)[C@](C)(Cc1ccc(O)cc1)NC(=O)[C@@H](CCC(=O)O)NC(=O)[C@@H](NC(=O)[C@H](Cc1ccccc1)NC(=O)[C@H](CCC(=O)O)NC(=O)C(C)(C)NC(=O)[C@H](CCC(N)=O)NC(=O)[C@H](C)NC(=O)[C@H](CCCCNC(=O)COCCOCCNC(=O)COCCOCCNC(=O)CC[C@H](NC(=O)CCCCCCCCCOc1ccc(C(=O)O)cc1)C(=O)O)NC(=O)[C@H](CCCN)NC(=O)[C@H](CC(=O)O)NC(=O)[C@H](CC(C)C)NC(=O)[C@](C)(CC(C)C)NC(=O)[C@@H](NC(=O)[C@H](CO)NC(=O)[C@H](Cc1ccc2ccccc2c1)NC(=O)[C@H](CC(=O)O)NC(=O)[C@H](CO)NC(=O)[C@@H](NC(=O)[C@](C)(Cc1ccccc1F)NC(=O)[C@@H](NC(=O)CNC(=O)[C@H](CCC(=O)O)NC(=O)C(C)(C)NC(=O)[C@@H](N)Cc1ccc(O)cc1)[C@@H](C)O)[C@@H](C)O)[C@@H](C)CC)[C@@H](C)CC)C(=O)N[C@@H](CCCCNC(=O)COCCOCCNC(=O)COCCOCCNC(=O)CC[C@H](NC(=O)CCCCCCCCCOc1ccc(C(=O)O)cc1)C(=O)O)C(=O)NCC(=O)NCC(=O)N1CCC[C@H]1C(=O)N[C@@H](CO)C(=O)N[C@@H](CO)C(=O)NCC(=O)N[C@@H](C)C(=O)N1CCC[C@H]1C(=O)N1CCC[C@H]1C(=O)N1CCC[C@H]1C(=O)N[C@@H](CO)C(N)=O [Example 282]
- EC50 (hGCGR; [5]): > 9950 nM
- EC50 (hGCGR; [6]): > 9950 nM
- Emax (hGIPR; [7]): 84.4%
- EC50 (hGIPR; hGIPR EC50, nM (SEM, n), 0.1% bovine casein and 1.0% human serum albumin, 37° C.): 1.44 nM
- EC50 (hGIPR; [8]): 0.0193 nM

SMILES: CCCC[C@H](NC(=O)[C@H](CC(=O)O)NC(=O)[C@H](CO)NC(=O)[C@@H](NC(=O)[C@](C)(Cc1ccccc1F)NC(=O)[C@@H](NC(=O)CNC(=O)[C@H](CCC(=O)O)NC(=O)C(C)(C)NC(=O)[C@@H](N)Cc1ccc(O)cc1)[C@@H](C)O)[C@@H](C)O)C(=O)N[C@@H](CO)C(=O)N[C@H](C(=O)N[C@@](C)(CC(C)C)C(=O)N[C@@H](CC(C)C)C(=O)N[C@@H](CC(=O)O)C(=O)N[C@@H](CCCN)C(=O)N[C@@H](CCCCNC(=O)COCCOCCNC(=O)COCCOCCNC(=O)CC[C@H](NC(=O)CCCCCCCCCOc1ccc(C(=O)O)cc1)C(=O)O)C(=O)N[C@@H](C)C(=O)N[C@@H](CCC(N)=O)C(=O)NC(C)(C)C(=O)N[C@@H](CCC(=O)O)C(=O)N[C@@H](Cc1ccccc1)C(=O)N[C@H](C(=O)N[C@H](CCC(=O)O)C(=O)N[C@@](C)(Cc1ccc(O)cc1)C(=O)N[C@@H](CC(C)C)C(=O)N[C@H](C(=O)N[C@@H](CCCCNC(=O)COCCOCCNC(=O)COCCOCCNC(=O)CC[C@H](NC(=O)CCCCCCCCCOc1ccc(C(=O)O)cc1)C(=O)O)C(=O)NCC(=O)NCC(=O)N1CCC[C@H]1C(=O)N[C@@H](CO)C(=O)N[C@@H](CO)C(=O)NCC(=O)N[C@@H](C)C(=O)N1CCC[C@H]1C(=O)N1CCC[C@H]1C(=O)N1CCC[C@H]1C(=O)N[C@@H](CO)C(N)=O)[C@@H](C)CC)[C@@H](C)CC)[C@@H](C)CC [Example 328]
- EC50 (hGCGR; [6]): > 9950 nM
- EC50 (hGCGR; hGCGR EC50, nM (SEM, n), cAMP, 0.1% bovine casein and 1.0% human serum albumin, geometric mean (SEM, n)): > 9950 nM
- Emax (hGIPR; HEK293, read-out: hGIPR Emax, % ± SEM, cAMP, 37° C., 0.1% bovine casein and 1.0% human serum albumin): 85.5%
